{"source": "patent US5208344A", "about": "“Naphthalenepropionic acid derivatives as anti-inflammatory/antiallergic agents” (American Home Products Corporation, priority 1991, dated 1993)", "test_system": "ovalbumin-induced bronchoconstriction", "assay": "inhibition of antigen (ovalbumin)-induced bronchoconstriction in anesthetized guinea pigs", "format": "in vivo", "settings": "orally administered 4 hours before induction; guinea pig; 240 min", "experimental": "The compounds of the invention are tested to measure their in vivo ability to inhibit the bronchoconstriction induced in anesthetized guinea pigs by exogenously administered antigen.\nMale Hartley guinea pigs (400-700 gm) are sensitized three weeks prior to antigen (ovalbumin-OA) challenge as follows: each guinea pig is given two intramuscular injections--0.35 ml of Grade V OA, 50 mg/ml, into each hindlimb.\nGuinea pigs, fasted overnight but allowed water adlibitum, are anesthetized with 1.2 g/kg of urethane (intraperitoneal). Supplemental does of […] of urethane are administered intraperitoneally as needed. One carotid artery and one jugular vein are cannulated to allow for the monitoring of blood pressure and the administration of drugs, respectively. A duodenal cannula is inserted for intraduodenal dosing studies. The trachea of each animal is cannulated and connected to a Harvard respirator. […] Respiratory overflow pressure is measured from a side arm off the tracheal cannula which is connected via a Gould or Beckman pressure transducer to a suitable strip chart recorder. […]\nTest compounds are administered intravenously, perorally, or intraduodenally at appropriate times prior to OA challenge. […] Control experiments are used to determine the effects of solvents on the measured parameters, and test data is corrected for any significant solvent effects.\nBronchoconstriction is assessed as increases in respiratory overflow pressure (cm H2 O). Changes in blood pressure (mm Hg) are also recorded.\nTest compound-induced changes in the respiratory overflow pressure are assessed as percent changes from control experiments. […] The net change in overflow pressure is measured 5 minutes after antigen challenge and is calculated as follows. […] The percent change value for the drug treated group versus the control group is calculated as follows: […]", "note": "Structures can show the parent of a compound that is named as a salt."}
{"smiles": "C[C@H](C(=O)O)c1ccc2cc(OCc3ccc4ccccc4n3)ccc2c1", "note": "[Example 17, S-(α)-α-Methyl-6-(2-quinolinylmethoxy)-2-naphthaleneacetic acid, tromethanime salt]", "values": [{"measurement": "ED50 (ovalbumin-induced bronchoconstriction)", "value": 7, "unit": "mg/kg"}]}
